Data published in US20040266811A1, “Methods for inducing regeneration, remyelination, and hypermyelination of nervous tissue” (priority 2002, published 2004).
Entries after “also recorded” stand apart in the source; their conditions may differ.

Assays:
[1] = test system: SCIP and Brn-5 expression in Schwann cells; assay: RNA (Northern) blot for SCIP and Brn-5 in Schwann cells; type: cell-based, Sprague-Dawley rats; conditions: 1 μM GM-284, 48 h, growth-factor-starved Schwann cells
Method: To further assess the ability of GM-284 to regulate these genes, Schwann cells were maintained in DMEM containing FCS, and without forskolin or GGF, for 48 h, to rest the cells. Thereafter, 1 μM GM-284 was added for an additional 48 h. Total RNA was isolated, run on a denaturing agarose gel, transferred to a nylon filter, and hybridized with probes complimentary to either SCIP (panel a) or Brn-5 (panel b). Cyclophilin RNA was probed as a loading control.
20 μg of total RNA was prepared as previously described (Wu et al., The POU gene brn-5 is induced by neuregulin and is restricted to myelinating Schwann cells. Mol. Cell Neurosci., 17:683-95, 2001). Thereafter, total RNA was separated on 1% MOPS-formaldehyde agarose gels, transferred to MAGNA nylon transfer membrane (MSI), UV cross-linked (120 mJ/cm 2) using a UV crosslinker (FB-UVXL-1000, Fisher Biotech), and hybridized with ^32P-dCTP random-labeled (RTS RadPrime DNA Labeling System, Gibco BRL), probes purified by Sephadex G-50 column (Pharmacia, Peapack, N.J.).
The Brn-5 probe contains the rat Brn-5 coding region (generated by PCR), and was kindly provided by Dr. Bogi Andersen at the University of California at San Diego. This probe is 93% identical to the mouse Brn-5 mRNA. The SCIP probe was a 1.10-kb SmaI cDNA fragment from mouse SCIP DNA. […]

[2] = test system: purified sensory neurons from DRG; assay: Neurite outgrowth in purified (neuron-enriched) sensory neuron cultures; type: cell-based, E18 C57B1/6 mice; conditions: 1 μM GM-284, 6 days
Method: To generate neuron-enriched DRG cultures, DRGs were isolated from embryonic (E18) C57B1/6 mice, and processed in dissection media containing Hank's CMF saline, with 0.05% collagenase and 0.25% trypsin, for 30 min at 37° C. Neurons were obtained by trituration of ganglia with fire-polished Pasteur pipettes of decreasing diameter. Thereafter, the cellular suspension was washed twice in Dulbecco's modified Eagle medium supplemented with 10% fetal calf serum and 2% glucose. Freshly triturated neurons were incubated in 10% FCS-DMEM supplemented with 5-fluorouracil (Sigma, F-0503) and uridine (Sigma, U3003) for 48 h to remove non-neuronal proliferating cells, in the presence of either 100 ng/ml NGF or 1 μM GM-284. After 48 h, cultures were continued with these agents, but without mitotic inhibitors, for an additional 6 days.
DRG explants are complex tissues, containing both Schwann cells and neurons. Accordingly, it is possible that GM-284 acts to promote neurite outgrowth directly, by acting on neurons, or indirectly, by acting on adjacent Schwann cells, which then act to promote neuritogenesis. To differentiate these possibilities, sensory neurons from DRG were purified as described (Wood et al., Studies of the initiation of myelination by Schwann cells. Ann. NY Acad. Sci., 605:1-14, 1990), and contaminating Schwann cells were removed by treatment of the cultures with anti-mitotic drugs.

Schwann cells = assay: cDNA-array analysis of Schwann cell gene expression; type: cell-based, Sprague-Dawley rats
Method: To generate primary Schwann cells, neonatal Sprague-Dawley rats were sacrificed by decapitation, and 2-cm segments (approximately) of sciatic nerve were excised and placed in ice-cold PBS. Following removal of the epineurium, the nerves were pooled and placed in Hank's balanced salt solution containing 0.1% trypsin for 30 min at 37° C. Subsequently, partially-dissociated cells were plated onto polylysine/laminin-coated tissue culture plates, and enriched Schwann cells were further purified by the activation of anti-Thy 1.1 monoclonal antibodies and complement, in order to lyse proliferating fibroblasts (Wu and Weinstein, “Isolation and Purification of Primary Schwann Cells”, in Current Protocols in Neuroscience, Crawley et al., eds. (New York, N.Y.: John Wiley & Sons, 1999). The Schwann cells were maintained in DMEM containing 10% FCS supplemented with 50 ng/ml GGF and 2 μg/ml forskolin. However, these latter compounds were removed 48 h prior to the addition of immunophilin ligands. For the Schwann cell/PC12 co-cultures, monolayers of Schwann cells were prepared and overlaid with pCX-expressing PC12 cells, and cultures were incubated in the presence of either 100 ng/ml NGF or 1 μg/ml GM-284 for 48 h.
To test the former hypothesis, the inventors starved Schwann cells of growth factor for 48 h, then treated the cells for either 4 h or 48 h with a 1-μM dose of GM-284. RNA was harvested from the treated cells and from control (vehicle-treated) Schwann cells, and then prepared for cDNA-array analysis. Experimental details of the preparation of the RNA, and the methods for conducting the hybridization, washing, and scanning, are posted at the following http website: //sequence.aecom.yu.edu/bioinf/funcgenomic.html.
Total RNA was isolated, and prepared for cDNA microarray analysis as described (Peng et al., Microarray analysis of global changes in gene expression during cardiac myocyte differentiation. Physiol. Genomics, 9(3):145-55, 2002).

## CCC(C)(C)C(=O)C(=O)N1CCC[C@H]1c1nnc([C@@H]2CCCN2C(=O)C(=O)C(C)(C)CC)o1 [GM-284]
[1]
  SCIP and Brn-5 RNA expression relative to vehicle-treated cells: significantly induced; also recorded: induces Schwann cell expression of SCIP (Oct-6) and Brn-5
[2]
  neurite outgrowth in purified neuronal cultures: complete failure to elaborate processes; also recorded: failed to promote axonogenesis; also recorded: no neurite outgrowth
Schwann cells; 1 μM GM-284, 4 hours
  ESTs upregulated: 15
  Known genes upregulated: 11
  Selected upregulated genes: Cytokeratin 19 and Fibrillin 2 (fbn2) and IFNγ inducible and CD14 and Estradiol dehydrogenase
  Total upregulated genes: 26
Schwann cells; 1 μM GM-284, 48 hours
  ESTs upregulated: 77
  Known genes upregulated: 32
  Total upregulated genes: 109
